Data: patent publication US7566712B2, “Biaryl piperazinyl-pyridine analogues” (Neurogen Corporation, priority 2003, dated 2009)

target: T1, human capsaicin receptor (Homo sapiens, UniProt Q8NER1); experiment: Calcium mobilization assay, determination of antagonist activity (Example 6); format: cell-based; conditions: Table II; IC50 determined as described in Example 6 (antagonist activity, calcium mobilization)
T1 construct: pBK-CMV expression construct encoding the full length human capsaicin receptor; expressed in transfected cells
In short: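 Antagonism measured as inhibition of capsaicin-evoked (final concentration = EC50, from an 8-point 1 nM–3 μM curve) Fluo-3 calcium signal in stable hVR1-HEK293 cells. Test compounds at 1–5 μM final, 0.5–6 h dark preincubation at room temperature. IC50 = concentration giving 50% reduction versus agonist-only response.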

T1 sequence (Q8NER1 whole entry): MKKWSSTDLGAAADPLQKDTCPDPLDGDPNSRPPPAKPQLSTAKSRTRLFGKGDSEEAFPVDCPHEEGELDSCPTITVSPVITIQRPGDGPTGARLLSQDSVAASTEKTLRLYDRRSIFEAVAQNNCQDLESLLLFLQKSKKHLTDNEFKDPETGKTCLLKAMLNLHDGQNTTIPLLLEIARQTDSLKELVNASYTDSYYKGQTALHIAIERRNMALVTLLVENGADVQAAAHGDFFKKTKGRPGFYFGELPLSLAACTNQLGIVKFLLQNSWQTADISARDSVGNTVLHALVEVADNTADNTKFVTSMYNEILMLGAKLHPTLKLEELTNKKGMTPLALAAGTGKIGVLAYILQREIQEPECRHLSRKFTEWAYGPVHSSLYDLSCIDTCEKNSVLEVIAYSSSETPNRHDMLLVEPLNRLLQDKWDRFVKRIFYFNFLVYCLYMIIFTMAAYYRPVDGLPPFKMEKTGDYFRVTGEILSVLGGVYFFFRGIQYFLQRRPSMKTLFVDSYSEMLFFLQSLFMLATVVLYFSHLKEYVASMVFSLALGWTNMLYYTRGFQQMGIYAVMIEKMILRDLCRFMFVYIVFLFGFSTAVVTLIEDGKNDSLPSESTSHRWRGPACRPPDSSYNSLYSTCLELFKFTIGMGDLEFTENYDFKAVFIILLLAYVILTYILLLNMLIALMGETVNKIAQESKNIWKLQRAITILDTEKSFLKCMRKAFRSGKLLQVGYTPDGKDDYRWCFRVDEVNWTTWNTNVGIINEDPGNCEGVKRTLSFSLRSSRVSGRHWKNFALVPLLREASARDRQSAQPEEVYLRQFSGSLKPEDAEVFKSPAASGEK

Row | IC50 | SMILES
1 | ≤ 1000 nM | Cc1ccc(-c2cc(N3CCN(c4ncccc4Cl)C[C@H]3C)nc(N3CCC[C@H]3C)n2)cc1F [Example 979, 4-[(2R)-4-(3-chloropyridin-2-yl)-2-methylpiperazin-1-yl]-6-(3-fluoro-4-methylphenyl)-2-[(2R)-2-methylpyrrolidin-1-yl]pyrimidine]
2 | ≤ 1000 nM | Cc1ccc(-c2cc(N3CCN(c4ncccc4Cl)C[C@H]3C)nc(N3CCOCC3)n2)cc1F [Example 980, 4-[4-[(2R)-4-(3-chloropyridin-2-yl)-2-methylpiperazin-1-yl]-6-(3-fluoro-4-methylphenyl)pyrimidin-2-yl]morpholine]
3 | ≤ 1000 nM | Cc1ccc(-c2cc(N3CCN(c4nccnc4Cl)C[C@H]3C)nc(N3CCC[C@H]3C)n2)cc1F [Example 981, 4-[(2R)-4-(3-chloropyrazin-2-yl)-2-methylpiperazin-1-yl]-6-(3-fluoro-4-methylphenyl)-2-[(2R)-2-methylpyrrolidin-1-yl]pyrimidine]
4 | ≤ 1000 nM | C[C@@H]1CN(c2ncccc2F)CCN1c1cc(-c2ccc(F)c(Cl)c2)nc(Cl)n1 [Example 983, 2-chloro-4-(3-chloro-4-fluorophenyl)-6-[(2R)-4-(3-fluoropyridin-2-yl)-2-methylpiperazin-1-yl]pyrimidine]
5 | ≤ 1000 nM | C[C@@H]1CN(c2ncccc2Cl)CCN1c1cc(-c2ccc(F)c(Cl)c2)nc(N2CCC[C@@H]2C)n1 [Example 984, 4-(3-chloro-4-fluorophenyl)-6-[(2R)-4-(3-chloropyridin-2-yl)-2-methylpiperazin-1-yl]-2-[(2S)-2-methylpyrroiidin-1-yl]pyrimidine]
6 | ≤ 1000 nM | C[C@H]1CN(c2ncccc2Cl)CCN1c1cc(-c2ccc(F)c(Cl)c2)nc(N2CCC[C@@H]2C)n1 [Example 985, 4-(3-chloro-4-fluorophenyl)-6-[(2S)-4-(3-chloropyridin-2-yl)-2-methylpiperazin-1-yl]-2-[(2S)-2-methylpyrrolidin-1-yl]pyrimidine]
7 | ≤ 1000 nM | C[C@@H]1CN(c2nccnc2Cl)CCN1c1cc(-c2ccc(F)c(Cl)c2)nc(N2CCC[C@@H]2C)n1 [Example 986, 4-(3-chloro-4-fluorophenyl)-6-[(2R)-4-(3-chloropyrazin-2-yl)-2-methylpiperazin-1-yl]-2-[(2S)-2-methylpyrrolidin-1-yl]pyrimidine]
8 | ≤ 1000 nM | C[C@H]1CN(c2nccnc2Cl)CCN1c1cc(-c2ccc(F)c(Cl)c2)nc(N2CCC[C@@H]2C)n1 [Example 987, 4-(3-chloro-4-fluorophenyl)-6-[(2S)-4-(3-chloropyrazin-2-yl)-2-methylpiperazin-1-yl]-2-[(2S)-2-methylpyrrolidin-1-yl]pyrimidine]
9 | ≤ 1000 nM | C[C@@H]1CN(c2ccccc2F)CCN1c1cc(-c2ccc(F)c(Cl)c2)nc(N2CCC[C@@H]2C)n1 [Example 989, 4-(3-chloro-4-fluorophenyl)-6-[(2R)-4-(2-fluorophenyl)-2-methylpiperazin-1-yl]-2-[(2S)-2-methylpyrrolidin-1-yl]pyrimidlne]
10 | ≤ 1000 nM | C[C@@H]1CN(c2ccccc2F)CCN1c1cc(-c2ccc(F)c(Cl)c2)nc(N2CCCC2)n1 [Example 990, 4-(3-chloro-4-fluorophenyl)-6-[(2R)-4-(2-fluorophenyl)-2-methylpiperazin-1-yl]-2-pyrrolidin-1-ylpyrimidine]
11 | ≤ 1000 nM | C[C@@H]1CN(c2ccccc2F)CCN1c1cc(-c2ccc(F)c(Cl)c2)nc(N2CCOCC2)n1 [Example 991, 4-{4-(3-chloro-4-fluorophenyl)-6-[(2R)-4-(2-fluorophenyl)-2-methylpiperazin-1-yl]pyrimidin-2-yl}morpholine]
12 | ≤ 1000 nM | Cc1ccc(-c2cc(N3CCN(c4nccnc4Cl)C[C@H]3C)nc(N3CCC[C@@H]3C)n2)cc1F [Example 992, 4-[(2R)-4-(3-chloropyrazin-2-yl)-2-methylpiperazin-1-yl]-6-(3-fluoro-4-methylphenyl)-2-[(2S)-2-methylpyrrolidin-1-yl]pyrimidine]
13 | ≤ 1000 nM | Cc1ccc(-c2cc(N3CCN(c4nccnc4Cl)C[C@H]3C)nc(N3CCOCC3)n2)cc1F [Example 993, 4-[4-[(2R)-4-(3-chloropyrazin-2-yl)-2-methylpiperazin-1-yl]-6-(3-fluoro-4-methylphenyl)pyrimidin-2-yl]morpholine]
14 | ≤ 1000 nM | Cc1ccc(-c2cc(N3CCN(c4ncccc4Cl)C[C@H]3C)nc(N3CCC[C@@H]3C)n2)cc1F [Example 994, 4-[(2R)-4-(3-chloropyridin-2-yl)-2-methylpiperazin-1-yl]-6-(3-fluoro-4-methylphenyl)-2-[(2S)-2-methylpyrrolidin-1-yl]pyrimidine]
15 | ≤ 1000 nM | C[C@@H]1CN(c2ncccc2C(F)(F)F)CCN1c1cc(-c2ccc(F)c(F)c2)nc(N2CCC[C@@H]2C)n1 [Example 995, 4-(3,4-difluorophenyl)-2-[(2S)-2-methylpyrrolidin-1-yl]-6-{(2R)-2-methyl-4-[3-(trifluoromethyl)pyridin-2-yl]piperazin-1-yl}pyrimidine]
16 | ≤ 1000 nM | CC1CCCN1c1nc(-c2ccc(F)c(Cl)c2)cc(N2CCN(c3ncccn3)CC2)n1 (stereo not shown) [Example 996, 4-(3-chloro-4-fluorophenyl)-2-(2-methylpyrrolidin-1-yl)-6-(4-pyrimidin-2-ylpiperazin-1-yl)pyrimidine]

Row | IC50 | SMILES
17 | ≤ 1000 nM | Cc1ccc(-c2cc(N3CCN(c4ncccc4Cl)C[C@H]3C)nc(N3CCCC3)n2)cc1Cl [Example 997, 4-(3-chloro-4-methylphenyl)-6-[(2R)-4-(3-chloropyridin-2-yl)-2-methylpiperazin-1-yl]-2-pyrrolidin-1-ylpyrimidine]
18 | ≤ 1000 nM | Cc1ccc(-c2cc(N3CCN(c4ncccc4Cl)C[C@H]3C)nc(N3CCOCC3)n2)cc1Cl [Example 998, 4-{4-(3-chloro-4-methylphenyl)-6-[(2R)-4-(3-chloropyridin-2-yl)-2-methylpiperazin-1-yl]pyrimidin-2-yl}morpholine]
19 | ≤ 1000 nM | Cc1ccc(-c2cc(N3CCN(c4ncccc4Cl)C[C@H]3C)nc(N3CCC[C@@H]3C)n2)cc1Cl [Example 999, 4-(3-ohloro-4-methylphenyl)-6-[(2R)-4-(3-chloropyridin-2-yl)-2-methylpiperazin-1-yl]-2-[(2S)-2-methylpyrrolidin-1-yl]pyrimidine]
20 | ≤ 1000 nM | C[C@@H]1CN(c2ncccc2Cl)CCN1c1cc(-c2ccc(F)c(Cl)c2)nc(N2CCOC[C@@H]2C)n1 [Example 1000, (3S)-4-{4-(3-ohloro-4-fluorophenyl)-6-[(2R)-4-(3-chloropyridin-2-yl)-2-methylpiperazin-1-yl]pyrimidin-2-yl}-3-methylmorpholine]
21 | ≤ 1000 nM | Cc1ccnnc1N1CCN(c2cc(-c3ccc(F)c(Cl)c3)nc(N3CCCC3C)n2)CC1 (stereo not shown) [Example 1001, 3-{4-[6-(3-ohloro-4-fluorophenyl)-2-(2-methylpyrrolidin-1-yl)pyrimidin-4-yl]piperazin-1-yl}-4-methylpyridazine]
22 | ≤ 1000 nM | CC1CCCN1c1nc(-c2ccc(F)c(Cl)c2)cc(N2CCN(c3ncc(Br)cn3)CC2)n1 (stereo not shown) [Example 1002, 4-[4-(5-bromopyrimidin-2-yl)piperazin-1-yl]-6-(3-chloro-4-fluorophenyl)-2-(2-methylpyrrolidin-1-yl)pyrimidine]
23 | ≤ 1000 nM | C[C@@H]1CN(c2nccnc2Cl)CCN1c1cc(-c2ccc(F)c(Cl)c2)nc(N2CCOC[C@@H]2C)n1 [Example 1003, (3S)-4-{4-(3-chloro-4-fluorophenyl)-6-[(2R)-4-(3-chloropyrazin-2-yl)-2-methylpiperazin-1-yl]pyrimidin-2-yl}-3-methylmorpholine]
24 | ≤ 1000 nM | C[C@@H]1CN(c2ncccc2F)CCN1c1cc(-c2ccc(F)c(Cl)c2)nc(N2CCOC[C@@H]2C)n1 [Example 1004, (3S)-4-{4-(3-chloro-4-fluorophenyl)-6-[(2R)-4-(3-fluoropyridin-2-yl)-2-methylpiperaztn-1-yl]pyrimidin-2-yl}-3-methylmorpholine]
25 | ≤ 1000 nM | C[C@H]1CN(c2ncccc2Cl)CCN1c1cc(-c2ccc(F)c(Cl)c2)nc(N2CCOC[C@@H]2C)n1 [Example 1005, (3S)-4-{4-(3-chloro-4-fluorophenyl)-6-[(2S)-4-(3-chloropyridin-2-yl)-2-methylpiperazin-1-yl]pyrimidin-2-yl}-3-methylmorpholine]
26 | ≤ 1000 nM | C[C@@H]1CN(c2ncccc2F)CCN1c1cc(-c2ccc(F)c(F)c2)nc(N2CCOC[C@@H]2C)n1 [Example 1006, (3S)-4-{4-(3,4-difluorophenyl)-6-[(2R)-4-(3-fluoropyridin-2-yl)-2-methylpiperazin-1-yl]pyrimidin-2-yl}-3-methylmorpholine]
27 | ≤ 1000 nM | CC1CCCN1c1nc(-c2ccc(F)c(Cl)c2)cc(N2CCN(c3ncc(C#N)cn3)CC2)n1 (stereo not shown) [Example 1009, 2-{4-[6-(3-chloro-4-fluorophenyl)-2-(2-methylpyrrolidin-1-yl)pyrimidin-4-yl]piperazin-1-yl}pyrimidine-5-carbonitrile]
28 | ≤ 1000 nM | CC1CCCN1c1nc(-c2ccc(F)c(Cl)c2)cc(N2CCN(c3ncncc3Cl)CC2)n1 (stereo not shown) [Example 1010, 4-(3-chloro-4-fluorophenyl)-6-[4-(5-chloropyrimidin-4-yl)piperazin-1-yl]-2-(2-methylpyrrolidin-1-yl)pyrimidine]
29 | ≤ 1000 nM | CC1CCCN1c1nc(-c2ccc(F)cc2)cc(N2CCN(c3nc(Cl)ccc3Cl)C[C@H]2C)n1 (stereo partly shown) [Example 1011, 4-[4-(3,6-dichloropyridin-2-yl)-2-methylpiperazin-1-yl]-6-(4-fluorophenyi)-2-(2-methylpyrrolidin-1-yl)pyrimidine]
30 | ≤ 1000 nM | CNc1ccc(Cl)c(N2CCN(c3cc(-c4ccc(F)cc4)nc(N4CCCC4C)n3)[C@H](C)C2)n1 (stereo partly shown) [Example 1012, 5-chloro-6-{4-[6-(4-fiuorophenyl)-2-(2-methylpyrrolidin-1-yl)pyrimidin-4-yl]-3-methylpiperazin-1-yl}-N-methylpyridin-2-amine]
31 | ≤ 1000 nM | CC1CCCN1c1nc(-c2ccc(F)cc2)cc(N2CCN(c3ncncc3Cl)C[C@H]2C)n1 (stereo partly drawn) [Example 1013, 4-[(2R)-4-(5-chloropyrimidin-4-yl)-2-methylpiperazin-1-yl]-6-(4-fluorophenyl)-2-(2-methylpyrrolidin-1-yl)pyrimidine]
